From the NIST ThermoML archive (doi:10.1016/j.tca.2014.07.025)

Tests used:
[1] = mn = molality of the nth substance listed, in mol/kg; conditions: 100 kPa, Liquid; for speed of sound: Frequency=3 MHz, Sing-around technique in a fixed-path interferometer; for mass density: Vibrating tube method
[2] = 100 kPa, Liquid; for speed of sound: Frequency=3 MHz, Sing-around technique in a fixed-path interferometer; for mass density: Vibrating tube method

CC(C)C[C@H](NC(=O)CN)C(=O)O [glycyl-L-leucine] + O
[1]
Conditions	mass density, 305.15 K [kg/m3]	mass density, 310.15 K [kg/m3]	mass density, 315.15 K [kg/m3]	speed of sound, 305.15 K [m/s]	speed of sound, 310.15 K [m/s]	speed of sound, 315.15 K [m/s]
m1 = 0.00196	995.189	993.501	991.607	1514	1523.9	1532.4
m1 = 0.00595	995.39	993.701	991.806	1514.8	1524.6	1533
m1 = 0.00811	995.498	993.809	991.913	1515	1524.9	1533.1
m1 = 0.01008	995.597	993.908	992.01	1515.2	1525.2	1533.3
m1 = 0.02014	996.102	994.41	992.508	1516.4	1526.2	1534.5
m1 = 0.05085	997.635	995.935	994.019	1521.5	1531.4	1539.2
m1 = 0.1002	1000.07	998.358	996.42	1528.8	1538.2	1545.9
m1 = 0.1991	1004.86	1003.12	1001.14	1540.2	1548.9	1555.8
m1 = 0.299	1009.55	1007.79	1005.77	1552	1560	1566.6

CC1(C)S[C@@H]2[C@H](NC(=O)[C@H](N)c3ccc(O)cc3)C(=O)N2[C@H]1C(=O)O [amoxicillin] + O
[1]
Conditions	mass density, 305.15 K [kg/m3]	mass density, 310.15 K [kg/m3]	mass density, 315.15 K [kg/m3]	speed of sound, 305.15 K [m/s]	speed of sound, 310.15 K [m/s]	speed of sound, 315.15 K [m/s]
m1 = 0.0005	995.743	994.045	992.153	1514.7	1524.6	1532.9
m1 = 0.002	995.924	994.23	992.334	1515	1524.8	1533.2
m1 = 0.0035	996.115	994.412	992.522	1514.4	1524.3	1532.5

O [water]
[2]
Conditions	mass density [kg/m3]	speed of sound [m/s]
305.15 K	995.09	1513.5
310.15 K	993.403	1523.5
315.15 K	991.51	1532.2
